Legend:
[1] = test system: Staphylococcus epidermidis; test: Lysis evaluated by decrease in turbidity at 600 nm; assay type: cell-based; conditions: for Decrease in turbidity of bacteria: lysostafin 50 unit/ml
Text: (§1) Conditions for the enzyme to lyse Staphylococcus aureus (ATCC 12600), Staphylococcus epidermidis (ATCC 14990), Pseudomonas aeruginosa (ATCC 10145), Enterococcus faecalis (ATCC 19433) and Escherichia coli (ATCC 11775) were studied. For Staphylococcus aureus and Staphylococcus epidermidis, lysostafin was used as the lytic enzyme (Bur. J. Biochem., 38, 293-300, 1973). […] Further, for Pseudomonas aeruginosa and Escherichia coli, PBS containing 70 mmol/l sodium hydroxide was used. Each type of these bacteria was inoculated in 5 ml of BHI (Brain Heart Infusion) liquid medium (manufactured by DIFCO), and cultured at 37° C. for 8 hours or longer. Thus cultured bacterial liquid was collected by centrifugation at 4° C. for 10 minutes at 2,000×g. The collected bacteria were suspended in PBS to give a sample.
Lysis was evaluated by decrease in turbidity of the bacterial liquid at the absorbance of 600 nm using a microplate reader. Consequently, Staphylococcus aureus and Staphylococcus epidermidis were lysed by lysostafin. In respect of Pseudomonas aeruginosa and Escherichia coli, no enzymatic treatment was required because lysis was conducted with PBS containing 70 mmol/l sodium hydroxide. […] Moreover, when the bacterium incorporated upon phagocytotic action is for example, Pseudomonas aeruginosa, Escherichia coli or the like, bacterial cell wall is lysed during the alkaline treatment to result in the state in which the gene is exposed. Therefore, it is not necessary to conduct this enzymatic treatment. Each enzyme for the pretreatment which is used in lysis of the foreign microorganism according to the present invention is effective not only for the aforementioned bacterial strain, but also for other bacterial strain that includes other genus staphylococcus, genus streptococcus, genus bacillus, genus micrococcus and the like. […] The results are illustrated in FIG. 3, specifically, in regard to: (a) Staphylococcus aureus and Staphylococcus epidermidis, (b) Pseudomonas aeruginosa and Escherichia coli, and (c) Enterococcus faecalis.
Enterococcus faecalis was inoculated in 50 ml of the aforementioned BHI liquid medium, and cultured at 37° C. for 8 hours or longer. This culture liquid was centrifuged at 4° C. for 10 minutes at 2,000×g to collect the bacteria, followed by subjecting to a heat treatment in an autoclave (120° C., for 10 minutes) after suspending in PBS. Next, the suspension was centrifuged at 4° C. for 10 minutes at 2,000×g, and the supernatant was discarded. Precipitates were suspended in 1 ml of PBS, and thereafter, subjected to freeze-drying. This freeze-dried sample was suspended in 5 mmol/l Tris-hydrochloric acid (pH 6.0), 2 mmol/l magnesium chloride containing 0 to 10% DMSO to give the samples for N-acetylmuramidase. Further, Micrococcus luteus (JCM1464) was inoculated in 5 ml of BHI liquid medium (supra), and cultured at 37° C. for 8 hours or longer. The cultured bacterial liquid was centrifuged at 4° C. for 10 minutes at 2,000×g to collect the bacteria. After discarding the supernatant, and suspending and washing the bacterial pellet with 5 ml of PBS, centrifugation was conducted once again at 4° C. for 10 minutes at 2,000×g to collect the bacteria. […] Enzymatic activity was evaluated on the basis of the decrease in turbidity of the sample at the absorbance of 600 nm using a microplate reader. […] Additionally, no decrease in enzymatic activity was found with DMSO at the concentration of 2% or less. […] The results are show in FIG. 4(a) to (c) and Table 3 below.

Staphylococcus aureus = test: Lysis evaluated by decrease in turbidity at 600 nm; assay type: cell-based; conditions: FIG. 3(a)
Text: as §1, with “sample. Lysis was evaluated by decrease in turbidity of the bacterial liquid at the absorbance of 600 nm using a microplate reader. Consequently, Staphylococcus aureus and Staphylococcus epidermidis were lysed by lysostafin. In respect of Pseudomonas aeruginosa and Escherichia coli, no enzymatic treatment was required because lysis was conducted with PBS containing 70 mmol/l sodium hydroxide. […]” for “sample.”

SA digested sample = test: Enzymatic treatment of digested sample, bacterial bodies in leukocytes by acridine orange staining; assay type: cell-based, Staphylococcus aureus; design: key to enzymatic treatment determination: The determination was made as adequate when no bacterial body was identified in the leukocytes by the enzymatic treatment; conditions: for enzymatic treatment determination: SA digested sample, once, twice, thrice
Experimental: (§2) Using the slide glass having each digested sample smeared thereon, the enzymatic pretreatment was performed according to the process described in Example 3. Next, the slide glass after completing the enzymatic pretreatment was placed in a humid box, and the reaction was allowed by dropping 1 ml of each enzyme solution prepared to give each titer on the smeared site of the specimen. Thereafter, the slide glass was immersed in PBS containing 0.2 mol/l hydrochloric acid, and in 70% ethanol respectively, for 10 minutes, and air dried. After immersing this slide glass in PBS containing 70 mmol/l sodium hydroxide for 3 minutes, and in 70% ethanol for 10 minutes, it was air dried and stained with 1% acridine orange staining solution. Then, evaluation was made with a fluorescence microscope (×1,000). For Staphylococcus aureus and Staphylococcus epidermidis, examination of the optimal titer was conducted with lysostafin. […] The determination was made as adequate when no bacterial body was identified in the leukocytes by the enzymatic treatment.
(§3) Using a slide glass including each digested sample smeared thereon, examination was conducted according to the process described in example 17 (2). Time period of the enzymatic treatment in this test was 30 minutes, and the temperature for examination was 4° C., 25° C., 37° C., 42° C., and 60° C.
(§4) Using the slide glass including each digested sample smeared thereon, examination was conducted according to the process described in example 17 (2). […] Determination was conducted according to the process described in example 17 (2). As a consequence, for all of Staphylococcus aureus, Staphylococcus epidermidis and Enterococcus faecalis digested samples, no bacterial body was found in the leukocytes with the time period of the enzymatic treatment of 20 minutes or longer (inadequate at 0 minute and 10 minutes). Therefore, the optimal time period of the enzymatic treatment is at least 15 minutes or longer, preferably 20 minutes or longer, and still preferably 30 minutes to 60 minutes.

SE digested sample = test: as above; assay type: cell-based, Staphylococcus epidermidis; design: key to enzymatic treatment determination: The determination was made as adequate when no bacterial body was identified in the leukocytes by the enzymatic treatment; conditions: for enzymatic treatment determination: SE digested sample, once, twice, thrice
Experimental: as §2, §3, §4

“Lysostafin: lytic enzyme used for Staphylococcus aureus and Staphylococcus epidermidis” was tested, and the lysis ([1]; FIG. 3(a)) was “lysed”, the “Decrease in turbidity of bacteria” value ([1]; added DMSO 0 % (control)) was 0.168 ± 0.017 O.D./10 minutes and the “Decrease in turbidity of bacteria” value ([1]; added DMSO 0.1 %) was 0.164 ± 0.009 O.D./10 minutes. The “Decrease in turbidity of bacteria” value ([1]; added DMSO 1 %) was 0.160 ± 0.008 O.D./10 minutes, the “Decrease in turbidity of bacteria” value ([1]; added DMSO 2 %) was 0.145 ± 0.009 O.D./10 minutes and the “Decrease in turbidity of bacteria” value ([1]; added DMSO 5 %) was 0.124 ± 0.006 O.D./10 minutes. The “Decrease in turbidity of bacteria” value ([1]; added DMSO 10 %) was 0.094 ± 0.006 O.D./10 minutes, the lysis (Staphylococcus aureus) was “lysed” and the enzymatic treatment determination (SA digested sample; lysostafin titer 0.1 U/mL) was “Inadequate”. For the same substance, the enzymatic treatment determination (SA digested sample; lysostafin titer 1 U/mL) was “adequate”, the enzymatic treatment determination (SA digested sample; lysostafin titer 10 U/mL) was “adequate” and the enzymatic treatment determination (SA digested sample; lysostafin titer 100 U/mL) was “adequate”. For the same substance, the enzymatic treatment determination (SA digested sample; lysostafin titer 1,000 U/mL) was “adequate”, the “titer at which sufficient effects were exerted” value (SA digested sample; lysis of Staphylococcus aureus) was 1 unit/ml and the enzymatic treatment determination (SE digested sample; lysostafin titer 0.1 U/mL) was “inadequate”. For the same substance, the enzymatic treatment determination (SE digested sample; lysostafin titer 1 U/mL) was “inadequate”, the enzymatic treatment determination (SE digested sample; lysostafin titer 10 U/mL) was “adequate” and the enzymatic treatment determination (SE digested sample; lysostafin titer 100 U/mL) was “adequate”. For the same substance, the enzymatic treatment determination (SE digested sample; lysostafin titer 1,000 U/mL) was “adequate” and the “titer necessary for lysis” value (SE digested sample; lysis of Staphylococcus epidermidis) was ≥ 10 unit/ml.

Reference: patent US20070059687A1, “Process for evaluating phagocytotic function and use thereof” (priority 2001, published 2007)
